Target: Glycogen synthase kinase-3 beta (Homo sapiens, UniProt P49841)
Assay: GSK3beta kinase inhibitor potency, dose response, biochemical, luminescence, cell-free homogeneous, retest (AID 434954)

Sequence of Glycogen synthase kinase-3 beta (P49841 whole entry): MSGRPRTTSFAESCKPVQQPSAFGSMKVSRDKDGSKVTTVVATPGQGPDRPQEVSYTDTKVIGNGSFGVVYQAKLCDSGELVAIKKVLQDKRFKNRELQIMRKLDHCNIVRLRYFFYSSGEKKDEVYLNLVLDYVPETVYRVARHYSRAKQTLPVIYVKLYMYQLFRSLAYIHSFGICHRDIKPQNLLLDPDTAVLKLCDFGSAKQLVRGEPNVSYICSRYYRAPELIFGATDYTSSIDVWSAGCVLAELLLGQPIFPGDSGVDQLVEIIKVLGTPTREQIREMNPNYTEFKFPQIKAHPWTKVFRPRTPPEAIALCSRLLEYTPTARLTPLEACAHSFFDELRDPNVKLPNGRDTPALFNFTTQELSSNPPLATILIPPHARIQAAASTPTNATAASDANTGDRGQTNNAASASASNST

Row | Compound | EC50
1 | Cc1ccc2nc3c(cc2c1)c(NC(=O)c1ccco1)nn3CC(C)C [Furan-2-carboxylic acid (1-isobutyl-6-methyl-1H-pyrazolo[3,4-b]quinolin-3-yl)-amide] | > 300 µM
2 | COc1cc(C(c2nnnn2C(C)(C)C)N2CCN(c3nc4ccccc4s3)CC2)ccc1O (configuration not stated) [MLS000027473] | > 300 µM
3 | O=c1cc(NCc2ccccc2)nc2n1CCCS2 [MLS000027636] | > 300 µM
4 | Cc1ccsc1C1NC(=O)c2c(sc3c2CCCC3)N1 (configuration not stated) [MLS000027648] | > 300 µM
5 | COC(=O)c1ccc(-n2c(O)cc(N3CCN(C(=O)c4ccco4)CC3)c2O)cc1 [MLS000027707] | > 300 µM
6 | Cc1nnc2n(-c3ccccc3)c(=O)c3c4c(sc3n12)CC(C)CC4 (configuration not stated) [MLS000030539] | > 300 µM
7 | Cn1c(=O)[nH]c(=O)c2c1nc(Br)n2Cc1ccccc1Cl [MLS000031623] | > 300 µM
8 | COCCN(CC(=O)NCc1ccc(OC)cc1)C(=O)CCC(=O)Nc1nccs1 [MLS000032576] | > 300 µM
9 | COc1cccc(C(=O)c2sc(NC(C)C)nc2N)c1 [MLS000036929] | 0.33 µM
10 | Cc1cc(NC(=O)CSc2nc(-c3cccnc3)ccc2C#N)no1 [MLS000036936] | > 300 µM
11 | COc1cc(C(=O)Nc2cccc(-c3nc4ncccc4o3)c2C)cc(OC)c1OC [MLS000039714] | > 300 µM
12 | O=C1NC(=O)N(Cc2ccc(F)cc2)C(=O)C1=CNCCN1CCCCC1 [MLS000040945] | > 300 µM
13 | CCCCc1cc(=O)oc2cc(C)cc(OCc3nn[nH]n3)c12 [MLS000041678] | > 300 µM
14 | COc1ccc2nc3c(cc2c1)c(NC(=O)c1cccs1)nn3CC(C)C [MLS000041975] | 0.0951 µM
15 | O=C1NCCCc2c1oc1cc(Br)c(O)c(Br)c21 [MLS000043345] | 40.7 µM
16 | CCC(=O)n1nc(-c2ccc(OC)cc2)nc1N [MLS000043495] | > 300 µM
17 | CCOC(=O)c1cnc2ccc(OCC)cc2c1N1CCN(C)CC1 [MLS000047802] | 49.5 µM
18 | N#CCCn1cc(C(CC(=O)c2ccccc2)C(=O)O)c2ccccc21 (configuration not stated) [MLS000049352] | > 300 µM
19 | CNc1nc(N)c(C(=O)C(C)(C)C)s1 [MLS000050680] | > 300 µM
20 | O=C(CSc1nnc(-c2cccnc2)n1-c1ccccc1)Nc1ccc2c(c1)OCO2 [MLS000050858] | > 300 µM
21 | O=C(COc1ccc(S(=O)(=O)N2CCCC2)cc1Cl)Nc1ccc2c(c1)OCO2 [MLS000052177] | > 300 µM
22 | CCOC(=O)C1C(=CN2CCSCC2)NC(=O)NC1c1cc(C)ccc1C (configuration not stated) [MLS000052412] | > 300 µM
23 | COCCn1c(SCC(=O)NC(=O)NCc2ccccc2)nc2ccccc21 [MLS000053169] | > 300 µM
24 | Cc1cc(C)c(C)c(S(=O)(=O)Nc2ccccc2C(=O)NCCCn2ccnc2)c1C [MLS000055504] | > 300 µM
25 | NC1=N/C(=N\c2ccccc2)c2ccccc21 [MLS000057025] | > 300 µM

Row | Compound | EC50
26 | Cc1c(NC(=O)CSc2nnc3sc4ccccc4n23)c(=O)n(-c2ccccc2)n1C [MLS000060665] | > 300 µM
27 | CS(=O)(=O)c1nncn1-c1ccccc1 [MLS000062086] | > 300 µM
28 | Fc1ccccc1CSc1nnc(-c2ccccc2)o1 [MLS000063511] | > 300 µM
29 | O=C1CC(N2CCC(c3nc4ccccc4s3)CC2)C(=O)N1 (configuration not stated) [MLS000063725] | > 300 µM
30 | O=C1NC(=O)c2c(NC(=O)C3CCCO3)cccc21 (configuration not stated) [MLS000064410] | > 300 µM
31 | CS(=O)(=O)c1ccc2nc(NC(=O)CN3CCN(Cc4ccccc4)CC3)sc2c1 [MLS000064538] | > 300 µM
32 | CCCCC(=O)Nc1ncc(Br)s1 [MLS000066333] | 4.13 µM
33 | O=C(c1ccncc1)N1CCN(C(=O)c2ccco2)CC1 [MLS000066790] | > 300 µM
34 | Cc1cccc(-c2nnc(SCc3ccccc3)o2)c1 [MLS000067803] | > 300 µM
35 | O=C(O)CNCC1COc2ccccc2O1 (configuration not stated) [MLS000068078] | > 300 µM
36 | Cc1ccc(N2CC(C(=O)NCCCn3ccnc3)CC2=O)cc1 (configuration not stated) [MLS000069041] | > 300 µM
37 | CC1(C)CC(=O)C=C(Nc2ccc(F)cc2)C1 [MLS000070279] | > 300 µM
38 | CCN1CCc2c(C#N)c(N3CCCCC3)nc(N3CCOCC3)c2C1 [MLS000071254] | 16.1 µM
39 | Cc1nnc2n(-c3ccccc3)c(=O)c3c4c(sc3n12)CCCC4 [MLS000071277] | > 300 µM
40 | Cc1cc2c(s1)NC(=O)CN=C2c1cccs1 [MLS000072965] | 33.1 µM
41 | COc1ccc2nc(NC(=O)CSc3nc4cccnc4n3C)sc2c1 [MLS000072990] | 113 µM
42 | CC(OC(=O)c1nsc(Cl)c1Cl)C(=O)NCc1ccco1 (configuration not stated) [MLS000074009] | > 100 µM
43 | Cc1ccc(C)c(CSc2nnc(-c3cccnc3)o2)c1 [MLS000074430] | > 300 µM
44 | O=S(=O)(Nc1cccnc1)c1ccc(C2CCCCC2)cc1 [MLS000075296] | > 300 µM
45 | COc1cccc(CSc2nnc(-c3ccc(F)cc3)o2)c1 [MLS000077100] | 22.5 µM
46 | C=CCN=C(NC#N)SCC(=O)NC(C)(C)C [MLS000078466] | > 300 µM
47 | COCCOC(=O)C(C#N)c1nc2ccccc2nc1N1CCN(Cc2ccccc2)CC1 (configuration not stated) [MLS000078656] | > 300 µM
48 | CC(C)Cn1nc(NC(=O)C(C)(C)C)c2cc3ccccc3nc21 [MLS000081069] | 71.4 µM
49 | Cn1c(=O)c2[nH]c(CN(Cc3ccccc3)Cc3ccccc3)nc2n(C)c1=O [MLS000081398] | > 300 µM
50 | CCCCn1nc(NC(=O)c2cccs2)c2cc3ccccc3nc21 [MLS000081455] | > 300 µM

Row | Compound | EC50
51 | Cc1[nH]nc2c1C(c1cccc(O)c1)C1C(=O)CC(C)(C)CC1=N2 (configuration not stated) [MLS000081979] | 0.421 µM
52 | CCOC(=O)c1sc2c(c1C)C(c1cccs1)C1C(=O)CCCC1=N2 (configuration not stated) [MLS000082170] | > 300 µM
53 | CSc1nc(NCc2ccco2)c2c3c(sc2n1)CN(C)CC3 [MLS000082597] | 30.2 µM
54 | CCSc1nc(N)c2c3c(sc2n1)CN(C)CC3 [MLS000082600] | > 300 µM
55 | Cc1nc(NCCCn2ccnc2)c2oc3ccccc3c2n1 [MLS000082652] | > 300 µM
56 | COc1ccc(N2CCN(CCNC(=O)c3nnc(Cc4c(F)cccc4Cl)o3)CC2)cc1 [MLS000083714] | > 300 µM
57 | CN1CCc2c(sc3c2c(=O)n(-c2cccc(Cl)c2)c2nncn32)C1 [MLS000084041] | > 300 µM
58 | Cc1nc2nc(=O)c3c(n2[nH]1)NC1=C(C(=O)CC(C)(C)C1)C3c1ccccc1 (configuration not stated) [MLS000084334] | > 300 µM
59 | Cc1nc2nc(=O)c3c(n2[nH]1)NC1=C(C(=O)CC(C)(C)C1)C3c1ccc(F)cc1 (configuration not stated) [MLS000084336] | > 300 µM
60 | CCN(CC)Cc1c(C(=O)OC)nnn1-c1nonc1N [MLS000085717] | > 300 µM
61 | CC(C)CNC(=O)c1cccc(NC(=O)c2ccc(NC(=O)c3ccco3)cc2)c1 [MLS000088940] | > 300 µM
62 | CCOC(=O)C1C(C)=Nc2ncnn2C1c1c[nH]c2ccccc12 (configuration not stated) [MLS000089006] | 4.64 µM
63 | CCOC(=O)C1C(C)=Nc2ncnn2C1/C=C/c1ccccc1 (configuration not stated) [MLS000089169] | > 300 µM
64 | COCc1c(C(N)=O)nnn1-c1nonc1N [MLS000089737] | > 300 µM
65 | CN(C)c1ccc(-c2nc3ccccc3n2C)cc1 [MLS000089904] | > 300 µM
66 | Cc1c(C(=O)OCCOc2ccccc2)[nH]c2c1C(=O)CCC2 [MLS000090901] | 10.9 µM
67 | CCN1CCN(C(=O)c2cc3cc4cc(OC)ccc4nc3s2)CC1 [MLS000091315] | > 300 µM
68 | CCOC(=O)N1CCC(NC(=O)c2cc3sccc3n2CC)CC1 [MLS000093129] | > 300 µM
69 | CCC(Sc1ccc2nnc(-c3ccc(F)cc3)n2n1)C(=O)OC (configuration not stated) [MLS000093330] | 20.1 µM
70 | COC(=O)C(C)Sc1ccc2nnc(-c3ccc(F)cc3)n2n1 (configuration not stated) [MLS000093331] | 11.9 µM
71 | O=C(Nc1ccccn1)Nc1cccs1 [MLS000093554] | > 300 µM
72 | CCCn1cc(SCC(=O)NCc2ccco2)c2ccccc21 [MLS000095681] | > 300 µM
73 | CN(c1ccccc1C(=O)Nc1cccc(C(F)(F)F)c1)S(C)(=O)=O [MLS000096933] | > 300 µM
74 | COCCn1c(SCC(=O)Nc2ncc(Cl)c(C)c2Cl)nc2ccccc21 [MLS000097567] | > 300 µM
75 | Cn1c(SCc2nnc(-c3ccc(F)cc3)o2)nnc1C1COc2ccccc2O1 (configuration not stated) [MLS000098636] | 221 µM

Row | Compound | EC50
76 | Cc1cc(C)c(NC(=O)c2ccc(S(=O)(=O)N3CCOCC3)cc2)c(C)c1 [MLS000100511] | > 300 µM
77 | O=C(Nc1ncc(Cc2ccccc2)s1)C1CCCO1 (configuration not stated) [MLS000100685] | 17.6 µM
78 | N#Cc1c2n(c3c(-c4ccccc4)ncnc13)CCC2 [MLS000104266] | 40 µM
79 | CCc1nnc(NC(=O)c2cccc(OC)c2)s1 [MLS000104553] | > 300 µM
80 | O=C(Nc1cccnc1)Nc1ccccn1 [MLS000104821] | > 300 µM
81 | O=c1oc(-c2cccs2)nc2sc3c(c12)CCC3 [MLS000107331] | > 300 µM
82 | OCCNc1nc(-c2cccnc2)nc2ccccc12 [MLS000107346] | > 300 µM
83 | C=C1CSc2nc(=O)c3c4c(sc3n21)CCCC4 [MLS000108332] | > 300 µM
84 | Cc1ccc(S(=O)(=O)N/C(=N/C(C)C(=O)O)c2ccccc2)cc1 (configuration not stated) [MLS000108658] | > 300 µM
85 | COc1ccc(OC)c(C(=O)c2coc3ccc(OC)cc23)c1 [MLS000108671] | > 300 µM
86 | Clc1ccc2[nH]c3c(c2c1)CCc1c[nH]nc1-3 [MLS000108710] | 25.3 µM
87 | CC1(C)CC(=O)C=C(Nc2cccc(O)c2)C1 [MLS000108953] | > 300 µM
88 | COc1ccc(-c2nn(-c3ccccc3)cc2CO)cc1OC [MLS000110763] | > 300 µM
89 | O=C(Nc1cccc(F)c1)Nc1ccccn1 [MLS000111709] | > 300 µM
90 | COCCOC(=O)c1c(C)oc2ccc(OC(=O)c3cccs3)cc12 [MLS000111716] | > 300 µM
91 | CCCc1cc(=O)oc2cc(C)c3c(C)coc3c12 [MLS000112563] | > 300 µM
92 | CCOC(=O)C1C(C)=Nc2ncnn2C1c1cc(OC)ccc1OC (configuration not stated) [MLS000112815] | > 300 µM
93 | Cc1ccc(-c2oc3ccccc3c(=O)c2O)cc1 [MLS000114653] | > 300 µM
94 | COc1ccc(C(=O)c2coc3ccc(O)c(CN4CCOCC4)c23)cc1 [MLS000115876] | > 300 µM
95 | COc1ccc(C(=O)c2coc3ccc(O)c(CN(C)C)c23)cc1 [MLS000115878] | > 300 µM
96 | CCn1c(SCC(=O)Nc2ccc(Cl)cc2)nnc1C1CC1 [MLS000115911] | > 300 µM
97 | CCCc1cc(C(=O)Nc2cc(Br)ccc2O)no1 [MLS000116375] | > 300 µM

From BindingDB's records for doi:10.7270/Q2TX3CTT (Broad Institute, 2010)
